Among the data in patent publication US7507727B2, “Substituted quinobenzoxazine analogs and methods of using thereof” (Cylene Pharmaceuticals, Inc., priority 2003, dated 2009) are IC50 values, retold here.

Read-outs that look alike come from different tables or passages of the source.

Experiment [1] deals with c-Myc template DNA (c-myc quadruplex). Put plainly: Quadruplex binding / stop assay (Taq polymerase arrest, capillary electrophoresis).
The subject of experiment [2] is HeLa cells. The experiment is described as follows: MTS cell proliferation and/or cytotoxicity assay. The format is cell-based, Human. Particulars: Homo sapiens, HeLa. The method, boiled down:
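HeLa cells seeded at 4,500 cells/well, exposed to compounds from day 1 for 3 days at 37 °C, 5% CO2. Viability by MTS/PMS (20:1) with 4 h incubation, absorbance at 490 nm. Values are concentrations giving 50% antiproliferative response.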

[3] abbreviates: read-out: S DATA, Table 1D, stop assay data.
The mark [4] stands for this setting: HeLa cells, MTS, read-out: Hela MTS.
Setting [5] is: read-out: Stop Data c-Myc μM, concentration at which 50% of the DNA was arrested (arrested:full-length 1:1).
[6] abbreviates: 72 h, concentration at which 50% of antiproliferative cell response is seen, 3 days incubation, read-out: MTS Data Hella.

Turning to `CN1CCCC1CCNC(=O)c1cn2c3c(c(NCC4(O)CCCCC4)c(F)cc3c1=O)Oc1cc3ccccc3cc1-2` (centres unmarked) [compound 1665], the results for the IC50 in experiment [1] (setting [3]) and in experiment [2] (setting [4]) were 0.75 µM and 240 nM, respectively.
As for `CN1CCCC1CCNC(=O)c1cn2c3c(c(NCC4CC(C)(C)N(O)C4(C)C)c(F)cc3c1=O)Oc1cc3ccccc3cc1-2` (centres unmarked) [compound 513], the IC50 in experiment [1] (setting [5]) worked out at 0.375 µM; in experiment [2] (setting [6]), 3100 nM.
For `CC1(C)CC(NC(=O)c2cn3c4c(c(N5CC6CCCNC6C5)c(F)cc4c2=O)Oc2cc4ccccc4cc2-3)CC(C)(C)N1` (centres unmarked) [compound 487], the IC50 stood at 0.5 µM in experiment [1] (setting [5]) and 180 nM in experiment [2] (setting [6]).
Regarding `CN(C)CCCCNC(=O)c1cn2c3cc4c(cc3oc3c(N5CC[C@H](NC(=O)OC(C)(C)C)C5)c(F)cc(c1=O)c32)c(=O)c1ccccc14` [compound 480], the values for the IC50 in experiment [1] (setting [5]) and in experiment [2] (setting [6]) were 0.5 µM and 3700 nM, respectively.
Consider `CN(C)CCCCNC(=O)c1cn2c3c(c(NCCCCN(C)C)c(F)cc3c1=O)Oc1cc3c(cc1-2)oc1ccccc13` [compound 367], for which the IC50 was 0.75 µM in experiment [1] (setting [5]) and 3700 nM in experiment [2] (setting [6]).
As for `O=C(NCCN1CCCC1)c1cn2c3c(c(N4CCC(c5cnccn5)C4)ccc3c1=O)Oc1ccccc1-2` (centres unmarked) [compound 30], the IC50 in experiment [1] (setting [5]) came out at 3 µM; in experiment [2] (setting [6]) it was 1800 nM.
As for `O=C(NCCN1CCCC1)c1cn2c3c(c(N4CC5CCCNC5C4)ccc3c1=O)Oc1cc3ccccc3cc1-2` (centres unmarked) [compound 544], the values for the IC50 in experiment [1] (setting [5]) and in experiment [2] (setting [6]) were 0.375 µM and 200 nM, respectively.
Take `NC1CCN(c2c(F)cc3c(=O)c(C(=O)NCCN4CCOCC4)cn4c3c2Oc2cc3c(cc2-4)oc2ccccc23)C1` (centres unmarked) [compound 530]: the IC50 in experiment [1] (setting [5]) is 0.375 µM; in experiment [2] (setting [6]), 720 nM.
The corresponding values for `CN1CCCC1CCNC(=O)c1cn2c3c(c(N4CCC(c5cnccn5)C4)c(F)cc3c1=O)Oc1cc3ccccc3cc1-2` (centres unmarked) [compound 516] are 0.375 µM and 2300 nM.
For the molecule `NC1CCN(c2c(F)cc3c(=O)c(C(=O)NCCc4cnc[nH]4)cn4c3c2Oc2cc3ccccc3cc2-4)C1` (centres unmarked) [compound 379], the IC50 in experiment [1] (setting [5]) is 0.75 µM; in experiment [2] (setting [6]) it was 1900 nM.
As to `O=C(NCCN1CCCC1)c1cn2c3c(c(SCCc4ccccn4)c(F)cc3c1=O)Oc1cc3ccccc3cc1-2` [compound 1782], the IC50 in experiment [1] (setting [3]) came to 3.3 µM; in experiment [2] (setting [4]), 2100 nM.
Turning to `CN(C)CC(C)(C)CNC(=O)c1cn2c3c(c(N4CC5CCCNC5C4)c(F)cc3c1=O)Oc1cc3ccccc3cc1-2` (centres unmarked) [compound 1644], the IC50 in experiment [1] (setting [3]) was determined as 0.375 µM; in experiment [2] (setting [4]), 650 nM.
As to `CN1CCCC1CCNC(=O)c1cn2c3cc4c(cc3oc3c(NCCC5CCCN5C)c(F)cc(c1=O)c32)c(=O)c1ccccc14` (centres unmarked) [compound 514], the IC50 was determined as 0.375 µM in experiment [1] (setting [5]) and 2900 nM in experiment [2] (setting [6]).
Turning to `C[C@@H](O)CNc1c(F)cc2c(=O)c(C(=O)NCCC3CCCN3C)cn3c2c1Oc1cc2ccccc2cc1-3` (some centres unmarked) [compound 382], the IC50 worked out at 0.75 µM in experiment [1] (setting [5]) and 1800 nM in experiment [2] (setting [6]).
In the case of `CN1CCCC1CCNc1c(F)cc2c(=O)c(C(=O)NCCN3CCCC3)cn3c4cc5c(cc4oc1c23)c(=O)c1ccccc15` (centres unmarked) [compound 527], the IC50 was 0.375 µM in experiment [1] (setting [5]) and 790 nM in experiment [2] (setting [6]).
Consider `CN1CCN(CCCNc2c(F)cc3c(=O)c(C(=O)NCCC4CCCN4C)cn4c3c2Oc2cc3c(cc2-4)oc2ccccc23)CC1` (centres unmarked) [compound 363], for which the IC50 in experiment [1] (setting [5]) is 0.75 µM; in experiment [2] (setting [6]), 3800 nM.
The corresponding values for `CN1CCCC1CCNC(=O)c1cn2c3c(c(N4CC[C@@H](NC(=O)CCN5CCCCC5)C4)c(F)cc3c1=O)Oc1cc3c(cc1-2)oc1ccccc13` (some centres unmarked) [compound 484] are 0.5 µM and 3100 nM.
Consider `CN1CCN(CCCNC(=O)c2cn3c4c(c(N5CC[C@@H](NC(=O)CCNCCC6CCCN6C)C5)c(F)cc4c2=O)Oc2cc4c(cc2-3)oc2ccccc24)CC1` (some centres unmarked) [compound 573], for which the IC50 was 0.18 µM in experiment [1] (setting [5]) and 4500 nM in experiment [2] (setting [6]).
Consider `CN1CCN(CCCNC(=O)c2cn3c4c(c(NCCN5CCCC5)c(F)cc4c2=O)Oc2cc4c(cc2-3)oc2ccccc24)CC1` [compound 365], for which the IC50 is 0.75 µM in experiment [1] (setting [5]) and 3800 nM in experiment [2] (setting [6]).
